# Reference: patent publication US8992960B2, “Multifunctional silica-based compositions and gels, methods of making them, and methods of using them” (University of Florida Research Foundation, Inc., priority 2010, dated 2015)
# Experiment: Reactivity of DMDS towards Cu(II) ions (odor over time)
# Assay type: physicochemical
# Conditions: in CuSiNG; preliminary results, characteristic odor over time
# Description: Unlike SiNG, the physico-chemical environment of DMDS in CuSiNG is expected to be somewhat different due to presence of Cu (II) ions. […] However, the DMDS electron-rich sulfur atom has the ability to weakly interact with electron-deficient Cu(II) ion. This could further facilitate adsorption of DMDS into CuSiNG. Thorough FT-IR studies are performed to understand the nature of intermolecular interactions that exist between DMDS and SiNG. In addition, thermogravimetric analysis (TGA), calorimetry and QCM sensing studies to obtain DMDS loading/release characteristics (isotherms) against CuSiNG and SiNG materials will be used to determine the role of Cu II ions in DMDS loading. A comparative isotherm data analysis along with FT-IR analysis will reveal the effect of Cu in DMDS loading/release process.
structure (smiles),measurement,value
"CSSC [DMDS, dimethyl disulfide]",reactivity to Cu(II) ions,non-reactive to Cu(II) ions
